Experimental data taken from paper PMC4467398, “Preclinical antitumor activity of ST7612AA1: a new oral thiol-based histone deacetylase (HDAC) inhibitor” (Oncotarget, 2014).
“And” between values parts separate entries of the source, which are not always exact repeats. Identical values can stand only once. Like-named read-outs stand apart in the source and are kept apart here.

How the values were obtained:
[1] = system: acetylation of histone H4 in NCI-H460 NSCLC cells; experiment: Western blot with densitometry, histone H4 acetylation; assay type: cell-based, human; details: 5 µM; NCI-H460; vehicle 0,0274
Description: (§1) For assessing the in vitro effect of ST7612AA1 on acetylation of α-tubulin and histones, NSCLC cells were treated with the test compound at various concentrations (dose-response curve). SAHA 5 μM was used as reference inhibitor. Protein extraction, separation and immunoblotting were performed as previously described. Immunoreactive bands were finally subjected to densitometry analysis by a phosphoimaging system (STORM, Molecular Dynamics), and then the IC50 values were calculated by the “ALLFIT” computer program. The antibodies used are listed in Supplementary Table 2.

[2] = system: acetylation of alpha-tubulin in NCI-H460 NSCLC cells; experiment: Western blot with densitometry, tubulin acetylation; assay type: cell-based, human; details: 5 µM; NCI-H460; vehicle 0,341
Description: as §1

HDAC6 = system: HDAC6; set-up: method as in PMID 25233084; details: cited from earlier work
HDAC1 = system: HDAC1; set-up: method as in PMID 25233084; details: cited from earlier work
HDAC3 = system: HDAC3; set-up: method as in PMID 25233084; details: mean of IC50 on HDAC3 and 6; cited from earlier work
[3] = PK sampling and analysis after a single oral dose of ST7612AA1 (plasma, LC-MS/MS); assay type: in vivo, CD1 mice; details: ST7464AA1 in plasma, single oral dose of 120 mg/kg of ST7612AA1
Description: CD1 nude mice were used. Male mice were treated with a single dose of ST7612AA1 at 120 mg/10 mL/kg p.o., using 5% Solutol HS 15 in water for injection as vehicle. Blood samples were collected at 0.25, 0.5, 1, 2, 4 and 6 h post treatment from 5 animals per time point. Levels of ST7612AA1 and ST7464AA1 were determined in plasma by quantitative LC-MS/MS having a limit of quantification of 25 ng/mL. The PK parameters Cmax (maximum plasma concentration), Tmax (time of maximum plasma concentration), Clast (last quantifiable concentration), Tlast (time of last quantifiable plasma concentration), AUClast (area under the concentration vs time curve from 0 to Tlast), AUCINF (area under the concentration vs time curve from 0 to infinity), T1/2 (terminal half-life), CL/F (apparent systemic clearance) and Vz/F (apparent terminal volume of distribution) were derived from the analyte plasma concentration vs time data according to a model independent approach for sparse data sampling by using Phoenix WinNonlin® ver. 6.3 software (Pharsight, Cetara).

HDAC2 = system: HDAC2; set-up: method as in PMID 25233084; details: cited from earlier work
HDAC11 = system: HDAC11; set-up: method as in PMID 25233084; details: mean of IC50 on HDAC1, 10 and 11; cited from earlier work
[4] = set-up: method as in PMID 25233084; details: mean of IC50 on HDAC1, 10 and 11; cited from earlier work
HDAC8 = system: HDAC8; set-up: method as in PMID 25233084; details: cited from earlier work
[5] = male, CD1 nude, mouse, mean ± SEM

| Tlast [3] [h] | AUC(0-inf) ([3]; male, CD1 nude, mouse) [ng·h/mL] | CL/F ([3]; male, CD1 nude, mouse) [mL/min/kg] | Tmax ([3]; male, CD1 nude, mouse) [h] | half-life ([3]; male, CD1 nude, mouse) [h] | AUC(0-t) [3, 5] [ng·h/mL] | Cmax [3, 5] [ng/mL] | concentration at 6 h ([3]; male, CD1 nude, mouse, read-out: Clast) [ng/mL] | Vd/F ([3]; male, CD1 nude, mouse, read-out: Vz/F) [L/kg] | SMILES | Acetyl H4/H4 [1] | Acetyl tub./tubulin [2] | IC50 (HDAC6; HDAC6) [nM] | IC50 (HDAC6; mean of IC50 on HDAC3 and 6) [nM] | IC50 (HDAC1; HDAC1) [nM] | IC50 (HDAC1; mean of IC50 on HDAC1, 10 and 11) [nM] | IC50 (HDAC3) [nM] | IC50 (HDAC2) | IC50 (HDAC11) [nM] | IC50 [4] [nM] | IC50 (HDAC8) [nM] |
| --- | --- | --- | --- | --- | --- | --- | --- | --- | --- | --- | --- | --- | --- | --- | --- | --- | --- | --- | --- | --- |
|  |  |  |  |  |  |  |  |  | O=C(CCCCCCC(=O)Nc1ccccc1)NO [SAHA, suberoylanilide hydroxamic acid, reference compound] | 0,1537 | 2,617 |  |  |  |  |  |  |  |  |  |
| 6.0 | 5510 | 363 | 0.5 | 3.8 | 3750 ± 299 | 1580 ± 478 | 303 | 119 | O=C1CC[C@H](C(=O)N[C@@H](CCCCCS)C(=O)Nc2ccccc2)N1 [ST7464AA1] |  |  | 3.18 | 4 | 12.7 | 13 | 4 | 77.7 nM and 78 nM | 13 | 13 | 281 |
